Laboratory results taken from patent US4698341A, “Use of 1,6-naphthyridinone derivatives in treating pulmonary thrombosis” (Godecke Aktiengesellschaft, priority 1983, dated 1987).
Like-named read-outs stand apart in the source and are kept apart here.

Columns and labels:
[1] = test system: Collagen-induced thrombocyte aggregation (platelet-rich plasma); test: Collagen-induced thrombocyte aggregation in vitro (rat); type: cell-based, rat (male Sprague Dawley SIV 50); settings: read-out: IC50 value, collagen-induced thrombocyte aggregation
Description: (§1) Collagen or ADP-induced thrombocyte aggregation in vitro (rat)
(§2) The test was carried out according to the method of BORN (Nature 194, 927-929, 1962). […] Blood was withdrawn from the postorbital venous plexus under ether anesthesia. Nine aliquots of blood were mixed with one aliquot of 3.8% (w/v) tri-Na-citrate solution. After low speed centrifugation of the mixture at room temperature, the platelet-rich plasma (PRP corresponding to the erythrocyte-frree supernatant) was removed and adjusted to a standard concentration of 400 000/μl. A universal aggregometer (Braun, Melsungen) connected with an Eppendorf photometer 1100M (Netheler and Hinz, Hamburg) was used as a measuring instrument. In this test portions of 700 μl of platelet-rich plasma (PRP) were equilibrated in the aggregometer at 37° C. for five minutes and then mixed with 58 μl of the test substance solution or with a 0.9% NaCl solution (corresponding to the blank value). After an incubation time of three minutes, the addition of 35 μl collagen suspension (collagen reagent HORM(®), Hormon Chemie, Munich) or 20 μl ADP solution (end concentration in the test 1×10^-5 mol/liter) causes aggregation. A compensation recorder recorded the change in transmission during the following 15 minutes.
(§3) The largest change in transmission occurring in this period was called amplitude (amp) of the aggregation curve. Aggregation-inhibiting substances produce a decrease of this amplitude; the inhibitory effect (E) of a substance is calculated according to the following formula:
(§4) E=(Ampbank value -AMPtest substance)/Ampblank value
(§5) Dose-effect curves were drawn for calculating the IC50 values.

[2] = test system: ADP-induced thrombocyte aggregation (platelet-rich plasma); test: ADP-induced thrombocyte aggregation in vitro (rat); type: cell-based, rat (male Sprague Dawley SIV 50); settings: read-out: IC50 value, ADP-induced thrombocyte aggregation
Description: as §1, §2, §3, §4, §5

tenia coli (guinea pig) = test: Ca2+ effect on the smooth muscles, tenia coli, inhibition of contraction amplitude; type: cell-based; settings: Cavia porcellus, 10 min, 32° C.; for inhibition: 3·10^-5 mol/l
Description: 1. Ca^2+ effect on the smooth muscles
Approximately 10 mm long, freshly isolated pieces of the tenia coli (guinea pig) were encircled at both ends with threads and connected with a mechanico-technical transducer in the organ bath (32° C., bubbled through with carbogen). Five to ten mN (0.5-1 p) were selected as mechanical pretension. […] This solution was exchanged for K+-rich and Ca++-free solution (40 mmol/l) KCl for depolarization of the cell membrane, the NaCl concentration being decreased correspondingly. One mmol/l CaCl2 was added to the nutrient solution under equilibrium conditions, resulting in a contraction of the muscle preparation. After reaching the new equilibration the test substance was added to the organ bath.
The percentage inhibition of the contraction amplitude after a ten-minute time of action of the test substance, related to the amplitude prior to administration of the substance, was calculated as substance effect. Each substance was tested in two preparations.

[3] = test system: left atrium of guinea pig; test: Isolated left atrium of guinea pigs, inhibition of contraction amplitude; type: cell-based; settings: Cavia porcellus; approximate values from four atriums, 35° C., 100 imp/min
Description: 2. Isolated atriums of guinea pigs
In a thermostated (35° C.) dissecting dish containing modified nutrient solution acc. to Krebs-Henseleit the left atrium was cautiously separated from the ventricle myocardium by means of scissors and a needle with thread passed through the apex of the atrium and knotted. Subsequently, the basis of the atrium was fastened to the hook of a preparation holder and transferred to a thermostated organ bath containing nutrient solution (25 ml, 35° C.). In the organ bath the thread at the apex of the atrium was attached to a mechanicoelectric transducer. Electrical stimulation was effected supramaximally with a frequency of 100 imp/min (stimulation range 2.5 msec). The hook of the preparation holder represented an electrode, whereas the second electrode was designed as field electrode in the preparation holder parallel to the tensioned atrium.
The substances were cumulatively added to the organ bath at intervals of four minutes.

[4] = rat PRP 400 000/μl, 37° C., collagen, Arith. M±S.D.
[5] = rat PRP 400 000/μl, 37° C., ADP 1×10^-5 mol/liter, Arith. M±S.D.

Row | Compound | IC50 [3] [µM] | IC50 [1, 4] [µM] | IC50 [2, 5] [µM] | IC50 ([1]; Rattus norvegicus) [µM] | IC50 ([2]; Rattus norvegicus) [µM] | inhibition at 1 µM (tenia coli (guinea pig); 10^-6 mol/l) [%] | inhibition (tenia coli (guinea pig)) [%]
1 | COc1ccc(CCN(C)CCCC(C#N)(c2ccc(OC)c(OC)c2)C(C)C)cc1OC (stereo not drawn) [Verapamil, reference compound] | 2 | – | – | 210 ± 20 | 560 ± 60 | 100 | –
2 | CCOC(=O)C1=C(C)Nc2ccn(CCCN3CCCCC3)c(=O)c2C1c1cccc(Cl)c1 (stereo not drawn) [Example 4 c., 1,4,5,6-Tetrahydro-4-(3-chlorophenyl)-2-methyl-5-oxo-6-(3-piperidinopropyl)-1,6-naphthyridine-3-carboxylic acid ethyl ester] | 300 | 60 ± 10 | 180 ± 10 | – | – | – | 44 ± 6
3 | CCOC(=O)C1=C(C)Nc2ccn(CCCN(C)C)c(=O)c2C1c1cccc(Cl)c1 (stereo not drawn) [Example 4 b., 1,4,5,6-Tetrahydro-4-(3-chlorophenyl)-6-(3-dimethylaminopropyl)-2-methyl-5-oxo-1,6-naphthyridine-3-carboxylic acid ethyl ester] | 300 | 160 ± 10 | 410 ± 50 | – | – | – | 57 ± 7
4 | CCOC(=O)C1=C(C)Nc2ccn(CCCN(C)C)c(=O)c2C1c1cccc([N+](=O)[O-])c1 (stereo not drawn) [Example 2, 1,4,5,6-Tetrahydro-6-(3-dimethylaminopropyl)-2-methyl-4-(3-nitrophenyl)-5-oxo-1,6-naphthyridine-3-carboxylic acid ethyl ester] | 300 | 160 ± 10 | 510 ± 40 | – | – | – | 88 ± 12

Further molecules by falling IC50 [3], results first:

Row | IC50 [3] [µM] | IC50 [1, 4] [µM] | IC50 [2, 5] [µM] | Compound | IC50 ([1]; Rattus norvegicus) [µM] | IC50 ([2]; Rattus norvegicus) [µM] | inhibition at 1 µM (tenia coli (guinea pig); 10^-6 mol/l) [%] | inhibition (tenia coli (guinea pig)) [%]
5 | 100 | 70 ± 10 | 240 ± 10 | CCOC(=O)C1=C(C)Nc2ccn(CCCN3CCCCC3)c(=O)c2C1c1cccc([N+](=O)[O-])c1 (stereo not drawn) [Example 4 f., 1,4,5,6-Tetrahydro-2-methyl-4-(3-nitrophenyl)-5-oxo-6-(3-piperidinopropyl)-1,6-naphthyridine-3-carboxylic acid ethyl ester] | – | – | – | 79 ± 3
6 | 100 | 160 ± 20 | 330 ± 20 | CCOC(=O)C1=C(C)Nc2ccn(CCCN3CCCCC3)c(=O)c2C1c1ccccc1Cl (stereo not drawn) [Example 4 e., 1,4,5,6-Tetrahydro-4-(2-chlorophenyl)-2-methyl-5-oxo-6-(3-piperidinopropyl)-1,6-naphthyridine-3-carboxylic acid ethyl ester.1/2 ethyl acetate] | – | – | – | 81 ± 5
